Source: EP1316317A1, “Hydrosoluble mixtures of cyproterone and/or an ester of it, processes to obtain them and uses thereof” (University of Liege, priority 2001, dated 2003)
“And” between values parts separate entries of the source, which are not always exact repeats. Equal values may be shown once.

Key:
[1] = Stability of CPA in alkaline medium (stress conditions), alone or complexed with CDs (HPLC); assay type: physicochemical; settings: CD 100 mM
Protocol: Les complexes sont préparés en ajoutant 2 ml de solution aqueuse de CD à 20 mg de CPA. Les solutions de CD utilisées pour préparer ces complexes sont des solutions de HPβCD, de HPγCD ou de RMβCD à une concentration de 100 mM. Après agitation pendant 24 heures à 25°C, ces solutions sont filtrées sur filtre en PVDF de 0,45 µm (Millipore, Millex HV 0,45 µm).
Les solutions de référence de CPA sont préparées en ajoutant 2 ml de solution aqueuse à 20 mg de CPA. Après agitation pendant 24 heures à 25°C, ces solutions sont filtrées sur filtre en PVDF de 0,45 µm (Millipore, Millex HV 0,45 µm).
Chaque essai est répété à 3 reprises et les échantillons sont conservés dans des étuves à température contrôlée à 25°C pendant 1 mois.
La concentration en CPA contenu dans les solutions de CPA seul ou sous forme de complexe est dosée par HPLC au temps 0 et après 1 mois et le pH des solutions est mesuré après 1 mois.
(§1) Les conditions chromatographiques sont telles qu'utilisées précédemment.
Après 1 mois, la libération de substances alcalines provenant des flacons a communiqué un pH alcalin aux solutions. Ce pH a été mesuré et varie entre 8 et 9 dans les différentes solutions. Ce pH alcalin a provoqué la dégradation de l'acétate de cyprotérone, par hydrolyse de la fonction ester.

[2] = Phase-solubility diagram of CPA in aqueous cyclodextrin solutions (excess CPA, HPLC assay of filtrate); assay type: physicochemical; settings: for Concentration en CPA (Solubilité du CPA en présence de HPβCD) / Concentration en CPA (Solubilité du CPA en présence de HPγCD) / Concentration en CPA (Solubilité du CPA en présence de RMβCD) / Concentration en CPA (Solubilité du CPA en présence de SBEβCD) / Concentration en CPA (Solubilité du CPA en présence de βCD) / Concentration en CPA (Solubilité du CPA en présence de γCD): 24 h at 25°C
Protocol: Les diagrammes de solubilité sont effectués en ajoutant un excès de CPA à des solutions de CD de concentration croissante. Après 24 heures d'agitation dans des bains thermostatisés à 25°C, ces solutions sont filtrées et la quantité de CPA solubilisée est dosée par HPLC.
Pesée de minimum 30 mg de CPA et ajout de 2 ml de solution de CD. Pour chaque concentration de CD, les essais sont répétés au moins deux fois. Des essais sont également effectués avec une solution aqueuse sans CD.
Les échantillons sont mis en agitation dans des bains thermostatisés à 25°C pendant 24 heures. Ensuite, ces échantillons sont filtrés sur filtre en polyvinyldifluoridène (PVDF) de 0,45 µm (Millipore, Millex HV 0,45 µm) et la concentration de CPA dans les filtrats est dosée par HPLC.
• Echantillonneur automatique Merck L-7200, Détecteur UV Merck L-7400, Pompe Merck L-7100 et intégrateur Merck D-2500.
• Colonne : Lichrospher RP18 (5 µm) 125 mm • Phase mobile : ACN/H2O 50/50 • Débit : 1,5 ml/min • Température : 25°C • Longueur d'onde : 282 nm • Etalon interne : propylparaben.

[3] = Stability of CPA in aqueous solution, alone or as complex with βCD (HPLC); assay type: physicochemical
Protocol: Un complexe est formé par ajout de 2 ml de solution aqueuse de βCD 10 mM à 20 mg de CPA. Après agitation pendant 24 heures à 25°C, ces solutions sont filtrées sur filtre en PVDF de 0,45 µm (Millipore, Millex HV 0,45 µm). La formation du complexe est effectuée sur 8 échantillons différents.
Les solutions de référence de CPA sont préparées en ajoutant 2 ml de solution aqueuse à 20 mg de CPA. Après agitation pendant 24 heures à 25°C, ces solutions sont filtrées sur filtre en PVDF de 0,45 µm. 8 échantillons sont préparés.
(§2) Les échantillons sont conservés dans des conditions ambiantes (20°C) pendant 3 mois.
La concentration en CPA contenue dans les solutions de CPA seul ou sous forme de complexe est dosée par HPLC au temps 0, après 1 mois et après 3 mois.
L'appareillage et les conditions chromatographiques sont ceux tels qu'utilisés dans l'Exemple 3.

[4] = water; background statement, no method given; cited from earlier work
[5] = Adsorption of CPA on cellulose and PVDF filters (recovery after filtration); assay type: physicochemical; settings: CPA 2 µg/ml (100 µg/ml diluted 50-fold), CD 10 mM
Protocol: Les complexes ont été préparés en diluant 50 fois une solution mère de CPA à 100 µg/ml dans un mélange eau/acétonitrile (ACN) 50/50, avec une solution aqueuse de cyclodextrine à 10 mM. Les différentes cyclodextrines utilisées sont la β-CD, la γCD, l'HPβCD, l'HPγCD et la RMβCD. Ces échantillons sont agités au vortex pendant au moins 1 minute. Etant donné la faible proportion de CPA par rapport à la concentration en cyclodextrine et le CPA étant déjà solubilisé dans le milieu, il n'est pas nécessaire d'agiter 24 heures à 25°C pour obtenir le complexe, ce dernier étant formé très rapidement.
Une solution de référence contenant seulement du CPA est préparée en diluant 50 fois la solution mère de CPA à 100 µg/ml dans un mélange eau/acétonitrile 50/50, avec de l'eau purifiée.
Chaque essai est répété à trois reprises. Ces échantillons sont ensuite filtrés en partie sur filtre en ester de cellulose et en partie sur filtre en PVDF. Les échantillons sont dosés avant et après filtration de façon à pouvoir calculer le pourcentage de récupération après filtration.

[6] = Stability of CPA in aqueous solution, alone or as complex with RMβCD (HPLC); assay type: physicochemical
Protocol: Les complexes sont formés par ajout de 2 ml de solution aqueuse de RMβCD à 30 mg de CPA. Des solutions de RMβCD à différentes concentrations ont été utilisées: 12,5; 25; 50; 100 et 200 mM. Après agitation pendant 24 heures à 25°C, ces solutions sont filtrées sur filtre en PVDF de 0,45 µm (Millipore, Millex HV 0,45 µm).
Les solutions de référence de CPA sont préparées en ajoutant 2 ml de solution aqueuse à 30 mg de CPA. Après agitation pendant 24 heures à 25°C, ces solutions sont filtrées sur filtre en PVDF de 0,45 µm (Millipore, Millex HV 0,45 µm).
as §2
La concentration en CPA contenu dans les solutions de CPA seul ou sous forme de complexe est dosée par HPLC au temps 0, après 1 mois et après 3 mois.
as §1

[7] = CPA concentration at time 0, 1440 min

Conc. t1 mois ([1]; CPA concentration after 1 month at 25°C, alkaline pH 8 to 9): 0,4 µg/ml | Conc. t0 [1, 7]: 2,3 µg/ml | Pourcentage CPA après 1 mois ([1]; after 1 month at 25°C, alkaline pH 8 to 9, 43800 min): 17,6% | Concentration en CPA (Solubilité du CPA en présence de HPβCD) ([2]; HPβCD 25 mM): 308,0 µg/ml | Concentration en CPA (Solubilité du CPA en présence de HPβCD) ([2]; HPβCD 50 mM): 629,9 µg/ml | Concentration en CPA (Solubilité du CPA en présence de HPβCD) ([2]; HPβCD 100 mM): 1188,6 µg/ml | Concentration en CPA (Solubilité du CPA en présence de HPβCD) ([2]; HPβCD 200 mM): 2648,2 µg/ml | Concentration en CPA (Solubilité du CPA en présence de HPβCD) ([2]; HPβCD 12,5 mM): 147,1 µg/ml | Concentration en CPA (Solubilité du CPA en présence de HPγCD) ([2]; HPγCD 25 mM): 282,5 µg/ml | Concentration en CPA (Solubilité du CPA en présence de HPγCD) ([2]; HPγCD 50 mM): 578,9 µg/ml | Concentration en CPA (Solubilité du CPA en présence de HPγCD) ([2]; HPγCD 100 mM): 1512,0 µg/ml | Concentration en CPA (Solubilité du CPA en présence de HPγCD) ([2]; HPγCD 200 mM): 4291,1 µg/ml | Concentration en CPA (Solubilité du CPA en présence de HPγCD) ([2]; HPγCD 12,5 mM): 118,7 µg/ml | Concentration en CPA (Solubilité du CPA en présence de RMβCD) ([2]; RMβCD 25 mM): 430,9 µg/ml | Concentration en CPA (Solubilité du CPA en présence de RMβCD) ([2]; RMβCD 50 mM): 1169,9 µg/ml | Concentration en CPA (Solubilité du CPA en présence de RMβCD) ([2]; RMβCD 100 mM): 3222,1 µg/ml | Concentration en CPA (Solubilité du CPA en présence de RMβCD) ([2]; RMβCD 200 mM): 9598,7 µg/ml | Concentration en CPA (Solubilité du CPA en présence de RMβCD) ([2]; RMβCD 12,5 mM): 176,9 µg/ml | Concentration en CPA (Solubilité du CPA en présence de SBEβCD) ([2]; SBEβCD 25 mM): 461,8 µg/ml | Concentration en CPA (Solubilité du CPA en présence de SBEβCD) ([2]; SBEβCD 50 mM): 860,9 µg/ml | Concentration en CPA (Solubilité du CPA en présence de SBEβCD) ([2]; SBEβCD 100 mM): 1475,2 µg/ml | Concentration en CPA (Solubilité du CPA en présence de SBEβCD) ([2]; SBEβCD 200 mM): 2034,1 µg/ml | Concentration en CPA (Solubilité du CPA en présence de SBEβCD) ([2]; SBEβCD 12,5 mM): 243,9 µg/ml | solubilité du CPA sans cyclodextrine ([2]; water without cyclodextrin, 24 h agitation at 25°C, 1440 min): < 3 µg/ml and 2,6 µg/ml | Concentration en CPA (Solubilité du CPA en présence de βCD) ([2]; βCD 5 mM): 28,8 µg/ml | Concentration en CPA (Solubilité du CPA en présence de βCD) ([2]; βCD 10 mM): 56,7 µg/ml | Concentration en CPA (Solubilité du CPA en présence de βCD) ([2]; βCD 15 mM): 86,5 µg/ml | Concentration en CPA (Solubilité du CPA en présence de γCD) ([2]; γCD 25 mM): 436,6 µg/ml | Concentration en CPA (Solubilité du CPA en présence de γCD) ([2]; γCD 50 mM): 1041,0 µg/ml | Concentration en CPA (Solubilité du CPA en présence de γCD) ([2]; γCD 100 mM): 2368,9 µg/ml | Concentration en CPA (Solubilité du CPA en présence de γCD) ([2]; γCD 200 mM (so in the source)): 2266,8 µg/ml | Concentration en CPA (Solubilité du CPA en présence de γCD) ([2]; γCD 12,5 mM): 195,2 µg/ml | CPA retrouvé après 1 mois, Conc. ([3]; after 1 month at ambient conditions (20°C)): 2,2 µg/ml | CPA retrouvé après 1 mois, Pourcentage moyen CPA ([3]; after 1 month at ambient conditions (20°C), relative to time 0, 43800 min): 84,6% | CPA retrouvé après 3 mois, Conc. ([3]; after 3 months at ambient conditions (20°C)): 2,1 µg/ml | CPA retrouvé après 3 mois, Pourcentage moyen CPA ([3]; after 3 months at ambient conditions (20°C), relative to time 0, 131400 min): 79,3% | CPA au temps 0, Conc. ([3]; time 0, βCD 10 mM for the complex, n=8, 1440 min): 2,6 µg/ml | Pourcentage de CPA récupéré après filtration sur PVDF, Moyenne ([5]; PVDF filter): 88,7% | Pourcentage de CPA récupéré après filtration sur acétate de cellulose, Moyenne ([5]; cellulose filter): 2,9% | Conc. t1 ([6]; CPA concentration after 1 month at ambient conditions (20°C)): 2,2 µg/ml | Conc. t0 [6, 7]: 2,7 µg/ml | Pourcentage t1 mois ([6]; CPA remaining after 1 month at 20°C, 43800 min): 83,7% | Pourcentage t3 mois ([6]; CPA remaining after 3 months at 20°C, 131400 min): 77,1%
Substance: acétate de cyprotérone [CPA]
solubilité de l'acétate de cyprotérone dans l'eau [4]: ~2 µg/mL
